Experimental data: PubChem BioAssay AID200 (DTP/NCI, 2004)
“And” between values parts separate entries of the source, which are not always exact repeats. Identical values can stand only once. Inconclusive results and toxic doses are left out. Where a SMILES comes first, the peptide text is derived from it. The star is where a group is joined. Cbz = O=C(OCc1ccccc1)*

Test system: B6C3F1 mice, B16 melanoma ip, median survival T/C
Experiment: NCI In Vivo Anticancer Drug Screen. Data for tumor model B16 Melanoma (intraperitoneal) in B6C3F1 mice
Conditions: endpoint: median survival time, schedule: Q01DX009 (ip), higher = longer survival
In short: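 Tumor-bearing mice received test compound; a separate group got vehicle only. Survival was then compared, with results reported as treated over control.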

[1] = dose: 5.0 mg/kg/injection, vehicle: saline
[2] = dose: 10.0 mg/kg/injection, vehicle: saline
[3] = dose: 20.0 mg/kg/injection, vehicle: saline
[4] = dose: 0.75 mg/kg/injection, vehicle: water
[5] = dose: 1.5 mg/kg/injection, vehicle: water
[6] = dose: 3.0 mg/kg/injection, vehicle: water
[7] = dose: 6.0 mg/kg/injection, vehicle: water
[8] = dose: 12.0 mg/kg/injection, vehicle: water
[9] = dose: 1.5 mg/kg/injection, vehicle: Klucel (hydroxypropylcellulose) (HPC)
[10] = dose: 25.0 mg/kg/injection, vehicle: saline with Tween-80
[11] = dose: 50.0 mg/kg/injection, vehicle: saline with Tween-80
[12] = dose: 100.0 mg/kg/injection, vehicle: saline with Tween-80
[13] = dose: 200.0 mg/kg/injection, vehicle: saline with Tween-80
[14] = dose: 25.0 mg/kg/injection, vehicle: Klucel (hydroxypropylcellulose) (HPC)
[15] = dose: 50.0 mg/kg/injection, vehicle: Klucel (hydroxypropylcellulose) (HPC)
[16] = dose: 100.0 mg/kg/injection, vehicle: Klucel (hydroxypropylcellulose) (HPC)
[17] = dose: 400.0 mg/kg/injection, vehicle: Klucel (hydroxypropylcellulose) (HPC)

C1OC1C1CO1 (centres undefined)
T/C (dose: 1.25 mg/kg/injection, vehicle: saline): 92 % of control and 104 % of control
T/C (dose: 2.5 mg/kg/injection, vehicle: saline): 91 % of control and 101 % of control (2×)
T/C [1]: 113 % of control and 103 % of control and 105 % of control
T/C [2]: 117 % of control and 122 % of control
T/C [3]: 118 % of control and 121 % of control
T/C (dose: 40.0 mg/kg/injection, vehicle: saline): 161 % of control

COc1cccc2c1C(=O)c1c(O)c3c(c(O)c1C2=O)C[C@H](O)C[C@@H]3OC1CC(N)C(O)C(C)O1 (some centres undefined)
T/C (dose: 0.75 mg/kg/injection, vehicle: saline): 150 % of control
T/C [4]: 159 % of control
T/C (dose: 1.5 mg/kg/injection, vehicle: saline): 184 % of control
T/C [5]: 164 % of control
T/C (dose: 3.0 mg/kg/injection, vehicle: saline): 175 % of control
T/C [6]: 192 % of control
T/C (dose: 6.0 mg/kg/injection, vehicle: saline): 260 % of control
T/C [7]: 215 % of control
T/C (dose: 12.0 mg/kg/injection, vehicle: saline): 346 % of control
T/C [8]: 320 % of control
T/C (dose: 24.0 mg/kg/injection, vehicle: saline): 183 % of control

CC(=O)O[C@@H]1CO[C@H]2O[C@H]3[C@@H](C(C=O)=C[C@H](O)[C@@H]4C5=C(C(C)C)CC[C@]5(C)CC[C@@]34C)[C@@]2(O)C1=O
T/C (dose: 0.75 mg/kg/injection, vehicle: Klucel (hydroxypropylcellulose) (HPC)): 89 % of control
T/C [9]: 94 % of control
T/C (dose: 3.0 mg/kg/injection, vehicle: Klucel (hydroxypropylcellulose) (HPC)): 88 % of control

CCOC(=O)C(Cc1ccc(O)cc1)NC(=O)c1ccccc1 (centres undefined)
T/C (dose: 40.0 mg/kg/injection, vehicle: saline with Tween-80): 116 % of control
T/C (dose: 80.0 mg/kg/injection, vehicle: saline with Tween-80): 96 % of control
T/C (dose: 160.0 mg/kg/injection, vehicle: saline with Tween-80): 112 % of control
T/C (dose: 320.0 mg/kg/injection, vehicle: saline with Tween-80): 96 % of control
T/C (dose: 640.0 mg/kg/injection, vehicle: saline with Tween-80): 101 % of control

c1ccc(-c2nn(-c3ccccc3)[n+](-c3ccccc3-c3ccccc3)n2)cc1
T/C [1]: 108 % of control
T/C [2]: 99 % of control
T/C [3]: 101 % of control

O=C1c2cccc3cc([N+](=O)[O-])cc(c23)C(=O)N1CCN1CCCC1
T/C (dose: 6.25 mg/kg/injection, vehicle: saline with Tween-80): 122 % of control
T/C [10]: 108 % of control

COc1ccc(O)cc1
T/C (dose: 12.5 mg/kg/injection, vehicle: saline with Tween-80): 112 % of control
T/C (dose: 18.0 mg/kg/injection, vehicle: saline with Tween-80): 98 % of control
T/C [10]: 101 % of control
T/C (dose: 30.0 mg/kg/injection, vehicle: saline with Tween-80): 106 % of control
T/C [11]: 102 % of control
T/C (dose: 89.0 mg/kg/injection, vehicle: saline with Tween-80): 106 % of control
T/C [12]: 104 % of control
T/C (dose: 189.0 mg/kg/injection, vehicle: saline with Tween-80): 101 % of control
T/C [13]: 105 % of control

CCCC1CCC(=C2C(=O)CCC2=O)O1 (centres undefined)
T/C [10]: 103 % of control
T/C [11]: 98 % of control

CCCCCCC/C=C/C(=O)OC1C(OC2C(OC(CCCCCCC)CC(=O)OC(CCCCCCC)CC(=O)O)OC(C)C(O)C2O)OC(C)C(O)C1O (centres undefined)
T/C (dose: 0.78 mg/kg/injection, vehicle: Klucel (hydroxypropylcellulose) (HPC)): 103 % of control
T/C (dose: 1.56 mg/kg/injection, vehicle: Klucel (hydroxypropylcellulose) (HPC)): 87 % of control
T/C (dose: 3.12 mg/kg/injection, vehicle: Klucel (hydroxypropylcellulose) (HPC)): 94 % of control

COc1cccc2c1C(=O)c1c(O)c3c(c(O)c1C2=O)CC(O)(/C(C)=N/NC(=O)CCC(=O)N/N=C(\C)C1(O)Cc2c(O)c4c(c(O)c2C(OC2CC(N)C(O)C(C)O2)C1)C(=O)c1c(OC)cccc1C4=O)CC3OC1CC(N)C(O)C(C)O1 (centres undefined)
T/C [4]: 171 % of control
T/C [5]: 171 % of control and 195 % of control
T/C [6]: 202 % of control and 242 % of control
T/C [7]: 250 % of control and 256 % of control
T/C [8]: 320 % of control

CC(NC(=O)OCc1ccccc1)C(=O)NC(CC(N)=O)C(=O)O (stereo not drawn) (Cbz-Ala-Asn-OH; configuration not given here)
T/C (dose: 12.0 mg/kg/injection, vehicle: Klucel (hydroxypropylcellulose) (HPC)): 101 % of control
T/C [14]: 101 % of control
T/C [15]: 98 % of control
T/C [16]: 107 % of control
T/C [17]: 104 % of control

CN(C)CC(O)c1cc2ccccc2c2ccccc12 (centres undefined)
T/C (dose: 12.5 mg/kg/injection, vehicle: saline): 103 % of control
T/C (dose: 25.0 mg/kg/injection, vehicle: saline): 103 % of control

Nc1ccc(OCCCc2c(-c3ccccc3)nc(N)[nH]c2=O)cc1
T/C [10]: 121 % of control
T/C [11]: 102 % of control
T/C [12]: 118 % of control
T/C [13]: 96 % of control

NC(=O)c1ncn(C2OC(CO)C(O)C2O)c1O (centres undefined)
T/C (dose: 12.5 mg/kg/injection, vehicle: Klucel (hydroxypropylcellulose) (HPC)): 102 % of control and 106 % of control
T/C [14]: 102 % of control and 107 % of control
T/C [15]: 98 % of control and 107 % of control
T/C [16]: 96 % of control and 106 % of control
T/C (dose: 200.0 mg/kg/injection, vehicle: Klucel (hydroxypropylcellulose) (HPC)): 97 % of control and 102 % of control
T/C [17]: 90 % of control

CCOC(=O)NC1CCc2cc(OC)c(OC)c(OC)c2-c2ccc(OC)c(=O)cc21 (centres undefined)
T/C [9]: 152 % of control
T/C (dose: 2.5 mg/kg/injection, vehicle: Klucel (hydroxypropylcellulose) (HPC)): 150 % of control and 152 % of control
T/C (dose: 4.16 mg/kg/injection, vehicle: Klucel (hydroxypropylcellulose) (HPC)): 154 % of control

Nc1cc(Cl)c2[nH]cnc2n1
T/C (dose: 6.25 mg/kg/injection, vehicle: water): 102 % of control
T/C (dose: 12.5 mg/kg/injection, vehicle: distilled water + Tween-80): 95 % of control
T/C (dose: 12.5 mg/kg/injection, vehicle: water): 106 % of control
T/C (dose: 25.0 mg/kg/injection, vehicle: distilled water + Tween-80): 88 % of control
T/C (dose: 25.0 mg/kg/injection, vehicle: water): 110 % of control
T/C (dose: 50.0 mg/kg/injection, vehicle: distilled water + Tween-80): 99 % of control
T/C (dose: 50.0 mg/kg/injection, vehicle: water): 98 % of control
T/C (dose: 100.0 mg/kg/injection, vehicle: distilled water + Tween-80): 96 % of control
T/C (dose: 100.0 mg/kg/injection, vehicle: water): 100 % of control
T/C (dose: 200.0 mg/kg/injection, vehicle: water): 100 % of control
